Laboratory results taken from patent publication US20200325505A1, “FILAMENTOUS FUNGI CAPABLE OF PRODUCING VERY LONG CHAIN FATTY ACIDS” (UT-Battelle, LLC, priority 2019, published 2020).
Residues, ends and D or L forms follow the SMILES beside them.

Key:
[1] = tested on: Mortierella elongata AG77; assay: Nitrogen source utilisation in Biolog 96-well plates, formazan formation after tetrazolium addition; format: cell-based; details: for Metabolized: Metabolized = more formazan formation than a control containing no nitrogen source, observed visually at 2 h, 24 h, 148 h; for Nitrogen sources that Mortierella elongata AG77 can metabolize: text summary of Table 4
Procedure: Two 300 mL volumes of growth medium comprising 1 g/L KH2PO4, 1 g/L MgSO4 7H2O, 0.1 g/L CaCl2, 0.02 g/L FeNaEDTA, 0.1 g/L NaCl, and either 1 g/L NH4NO3 or 20 g/L sucrose were prepared. […] Aliquots of 200 μL of carbon-free medium or nitrogen-free medium were pipetted into each well of a set of 96-well plates previously prepared with lyophilized putative carbon or nitrogen sources (Biolog Inc., Hayward, Calif.). Inocula were prepared by perforating a culture of Mortierella elongata AG77 grown on 20 g/L potato dextrose agar with a 3 mm diameter cork borer and separating the surface mycelial mat from the solid growth medium using tweezers. Each well was inoculated with one inoculum. Cultures were incubated at 21° C. for 24 hours to allow metabolic changes to stabilize, and then 100 μL of 3 g/L tetrazolium chloride in water was added to each well.
Conclusions were based on rate and intensity of formazan formation using the 3-(4,5-dimethylthiazol-2-yl)-2,5-diphenyltetrazolium bromide ([…]) assay. “Metabolized” indicates more formazan formation than a control containing no nitrogen source, and “Toxic” indicates less formazan formation than a control containing no nitrogen source, “Metabolized” and “Toxic” assignments are mutually exclusive. In this example, a compound may be “Metabolized” or “Toxic,” but not both.

[2] = tested on: Mortierella elongata AG77; assay: Carbon source utilisation in Biolog 96-well plates, formazan formation after tetrazolium addition; format: cell-based; details: for Metabolized: Metabolized = more formazan formation than a control containing no carbon source, observed visually at 2 h, 24 h, 148 h; for Carbon sources that Mortierella elongata AG77 can metabolize: summary of Table 3
In short: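 Scoring was by eye at 2, 24 and 148 h after tetrazolium chloride went into wells preincubated 24 h at 21 °C. Wells held lyophilised candidate carbon or nitrogen sources in pH 5.5 mineral medium lacking that nutrient, inoculated with 3 mm PDA-grown mycelial plugs. Formazan above the no-carbon control counted as metabolised and below it as toxic.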

[3] = compound as nitrogen source, Toxic = less formazan formation than a control containing no nitrogen source
[4] = compound as carbon source, Toxic = less formazan formation than a control containing no carbon source

Molecule: CC[C@H](C)[C@H](N)C(=O)O [L-Isoleucine]
- Toxic [1]: no
- Metabolized ([1]; compound as nitrogen source): yes
- Nitrogen sources that Mortierella elongata AG77 can metabolize [1]: can metabolize
- Toxic [2]: no
- Metabolized ([2]; compound as carbon source): no

Molecule: N[C@H](CCC(=O)O)C(=O)O [D-Glutamic Acid]
- Metabolized ([1]; compound as nitrogen source): no
- Toxic [1, 3]: no

Molecule: O=NO [Nitrite]
- Metabolized ([1]; compound as nitrogen source): no
- Toxic [1, 3]: no

Molecule: CCCCN [N-Butylamine]
- Metabolized ([1]; compound as nitrogen source): no
- Toxic [1, 3]: no

Molecule: O=c1ccn([C@@H]2O[C@H](CO)[C@@H](O)[C@H]2O)c(=O)[nH]1 [Uridine]
- Toxic [1]: no
- Metabolized ([1]; compound as nitrogen source): no
- Toxic [2]: no
- Metabolized ([2]; compound as carbon source): no

Molecule: CC(N)=O [Acetamide]
- Metabolized ([1]; compound as nitrogen source): no
- Toxic [1, 3]: no
- Metabolized ([2]; compound as carbon source): no

Molecule: C[C@@H](N)C(=O)O [D-Alanine]
- Toxic [1]: no
- Metabolized ([1]; compound as nitrogen source): yes
- Nitrogen sources that Mortierella elongata AG77 can metabolize [1]: can metabolize
- Toxic [2]: no
- Metabolized ([2]; compound as carbon source): yes
- Carbon sources that Mortierella elongata AG77 can metabolize [2]: can metabolize

Molecule: NC(N)=O [Urea]
- Metabolized ([1]; compound as nitrogen source): no
- Toxic [1, 3]: no

Molecule: C[C@H](N)C(=O)N[C@H](C(=O)O)[C@@H](C)O [Ala-Thr] (H-Ala-Thr-OH)
- Metabolized ([1]; compound as nitrogen source): no
- Toxic [1, 3]: no

Molecule: NCCCC[C@H](N)C(=O)O [L-Lysine]
- Toxic [1]: no
- Metabolized ([1]; compound as nitrogen source): no
- Toxic [2]: no
- Metabolized ([2]; compound as carbon source): no

Molecule: N[C@@H](Cc1ccc(O)cc1)C(=O)O [L-Tyrosine]
- Metabolized ([1]; compound as nitrogen source): no
- Toxic [1, 3]: no

Molecule: NCCc1ccccc1 [Phenylethyl-amine]
- Metabolized ([1]; compound as nitrogen source): no
- Toxic [1, 3]: no
- Metabolized ([2]; compound as carbon source): no
- Toxic [2, 4]: no

Molecule: O=c1[nH]c(=O)c2[nH]c(=O)[nH]c2[nH]1 [Uric Acid]
- Metabolized ([1]; compound as nitrogen source): no
- Toxic [1, 3]: no

Molecule: CSCC[C@H](N)C(=O)N[C@@H](C)C(=O)O [Met-Ala] (H-Met-Ala-OH)
- Metabolized ([1]; compound as nitrogen source): no
- Toxic [1, 3]: no

Molecule: N[C@@H](Cc1c[nH]c2ccccc12)C(=O)O [L-Tryptophan]
- Toxic [1]: no
- Metabolized ([1]; compound as nitrogen source): no

Molecule: NCCCC[C@@H](N)C(=O)O [D-Lysine]
- Toxic [1]: no
- Metabolized ([1]; compound as nitrogen source): no

Molecule: NCC(=O)N[C@@H](CC(N)=O)C(=O)O [Gly-Asn] (H-Gly-Asn-OH)
- Metabolized ([1]; compound as nitrogen source): no
- Toxic [1, 3]: no

Molecule: CC(=O)N[C@@H]1C(O)O[C@H](CO)[C@@H](O)[C@@H]1O (stereo partly drawn) [N-Acetyl-D-Mannosamine]
- Metabolized ([1]; compound as nitrogen source): no
- Toxic [1, 3]: no

Molecule: N[C@H]1C(O)O[C@H](CO)[C@H](O)[C@@H]1O (stereo partly drawn) [D-Galactosamine]
- Toxic [1]: no
- Metabolized ([1]; compound as nitrogen source): no

Molecule: CCCCCCC(N)C(=O)O (racemic) [D,L-α-Amino- Caprylic Acid]
- Metabolized ([1]; compound as nitrogen source): no
- Toxic [1, 3]: no

Molecule: CCCCCN [N-Amylamine]
- Toxic [1]: no
- Metabolized ([1]; compound as nitrogen source): no

Molecule: NCCCCCC(=O)O [ε-Amino-N-Caproic Acid]
- Metabolized ([1]; compound as nitrogen source): no
- Toxic [1, 3]: no

Molecule: NCC(=O)N[C@@H](CCC(N)=O)C(=O)O [Gly-Gln] (H-Gly-Gln-OH)
- Metabolized ([1]; compound as nitrogen source): no
- Toxic [1, 3]: no

Molecule: CC(C)[C@@H](N)C(=O)O [D-Valine]
- Toxic [1]: no
- Metabolized ([1]; compound as nitrogen source): no

Molecule: C[C@H](N)C(=O)N[C@@H](Cc1cnc[nH]1)C(=O)O [Ala-His] (H-Ala-His-OH)
- Metabolized ([1]; compound as nitrogen source): no
- Toxic [1, 3]: no

Molecule: NC(=O)NCCC[C@H](N)C(=O)O [L-Citrulline]
- Metabolized ([1]; compound as nitrogen source): no
- Toxic [1, 3]: no

Molecule: Nc1nc2c(ncn2[C@@H]2O[C@H](CO)[C@@H](O)[C@H]2O)c(=O)[nH]1 [Guanosine]
- Metabolized ([1]; compound as nitrogen source): no
- Toxic [1, 3]: no

Molecule: NO [Hydroxylamine]
- Metabolized ([1]; compound as nitrogen source): no

Molecule: NCCN [Ethylenediamine]
- Toxic [1]: no
- Metabolized ([1]; compound as nitrogen source): no

Molecule: CCC(N)C(=O)O (racemic) [D,L-α-Amino-N-Butyric Acid]
- Toxic [1]: no
- Metabolized ([1]; compound as nitrogen source): no

Molecule: C[C@H](N)C(=O)N[C@@H](CC(=O)O)C(=O)O [Ala-Asp] (H-Ala-Asp-OH)
- Metabolized ([1]; compound as nitrogen source): yes
- Toxic [1, 3]: no
- Nitrogen sources that Mortierella elongata AG77 can metabolize [1]: can metabolize

Molecule: CN [Methylamine]
- Metabolized ([1]; compound as nitrogen source): no
- Toxic [1, 3]: no

Molecule: N [Ammonia]
- Toxic [1]: no
- Metabolized ([1]; compound as nitrogen source): no

Molecule: CCC[C@H](N)C(=O)O [α-Amino-N-Valeric Acid]
- Metabolized ([1]; compound as nitrogen source): no
- Toxic [1, 3]: no

Molecule: Nc1ncnc2nc[nH]c12 [Adenine]
- Toxic [1]: no
- Metabolized ([1]; compound as nitrogen source): no

Molecule: CC(O)C(N)=O (racemic) [D,L-Lactamide]
- Metabolized ([1]; compound as nitrogen source): no
- Toxic [1, 3]: no

Molecule: CC(C)C[C@H](NC(=O)[C@H](C)N)C(=O)O [Ala-Leu] (H-Ala-Leu-OH)
- Metabolized ([1]; compound as nitrogen source): yes
- Toxic [1, 3]: no
- Nitrogen sources that Mortierella elongata AG77 can metabolize [1]: can metabolize

Molecule: O=c1[nH]c(=O)c2ncn([C@@H]3O[C@H](CO)[C@@H](O)[C@H]3O)c2[nH]1 [Xanthosine]
- Toxic [1]: no
- Metabolized ([1]; compound as nitrogen source): no

Molecule: CCN [Ethylamine]
- Metabolized ([1]; compound as nitrogen source): no
- Toxic [1, 3]: no

Molecule: C[C@H](N)C(=O)N[C@@H](CCC(N)=O)C(=O)O [Ala-Gln] (H-Ala-Gln-OH)
- Metabolized ([1]; compound as nitrogen source): yes
- Toxic [1, 3]: no
- Nitrogen sources that Mortierella elongata AG77 can metabolize [1]: can metabolize

Molecule: CSCC[C@H](NC(=O)CN)C(=O)O [Gly-Met]
- Metabolized ([1]; compound as nitrogen source): no
- Toxic [1, 3]: no

Molecule: NCCc1c[nH]cn1 [Histamine]
- Toxic [1]: no
- Metabolized ([1]; compound as nitrogen source): no

Molecule: Nc1nc2nc[nH]c2c(=O)[nH]1 [Guanine]
- Toxic [1]: yes
- Metabolized ([1]; compound as nitrogen source): no

Molecule: NC(=O)NC(N)=O [Biuret]
- Metabolized ([1]; compound as nitrogen source): no
- Toxic [1, 3]: no

Molecule: N[C@@H]1C(O)O[C@H](CO)[C@@H](O)[C@@H]1O (stereo partly drawn) [D-Mannosamine]
- Toxic [1]: no
- Metabolized ([1]; compound as nitrogen source): no

Molecule: NC=O [Formamide]
- Metabolized ([1]; compound as nitrogen source): no
- Toxic [1, 3]: no

Molecule: O=c1[nH]c(=O)c2[nH]cnc2[nH]1 [Xanthine]
- Toxic [1]: no
- Metabolized ([1]; compound as nitrogen source): no

Molecule: Nc1cc[nH]c(=O)n1 [Cytosine]
- Toxic [1]: no
- Metabolized ([1]; compound as nitrogen source): no

Molecule: O=C1NC(=O)C(=O)N1 [Parabanic Acid]
- Metabolized ([1]; compound as nitrogen source): yes
- Toxic [1, 3]: no
- Nitrogen sources that Mortierella elongata AG77 can metabolize [1]: can metabolize

Molecule: Cc1c[nH]c(=O)[nH]c1=O [Thymine]
- Toxic [1]: no
- Metabolized ([1]; compound as nitrogen source): no

Molecule: NC(=O)C[C@@H](N)C(=O)O [D-Asparagine]
- Toxic [1]: no
- Metabolized ([1]; compound as nitrogen source): no

Molecule: OC[C@H]1O[C@H](O)[C@H](O)[C@@H](O)[C@@H]1O [α-D-Glucose]
- Toxic [2]: no
- Metabolized ([2]; compound as carbon source): no

Molecule: Laminarin
- Toxic [2]: no

Molecule: Nc1ccn([C@@H]2O[C@H](CO)[C@@H](O)[C@H]2O)c(=O)n1 [Cytidine]
- Toxic [1]: no
- Metabolized ([1]; compound as nitrogen source): yes
- Nitrogen sources that Mortierella elongata AG77 can metabolize [1]: can metabolize

Molecule: NC(=O)NC1NC(=O)NC1=O (stereo not shown) [Allantoin]
- Toxic [1]: no
- Metabolized ([1]; compound as nitrogen source): no

Molecule: Tween 80
- Metabolized ([2]; compound as carbon source): yes
- Toxic [2, 4]: no
- Carbon sources that Mortierella elongata AG77 can metabolize [2]: can metabolize

Molecule: C[C@H](N)C(=O)N[C@@H](CCC(=O)O)C(=O)O [Ala-Glu] (H-Ala-Glu-OH)
- Metabolized ([1]; compound as nitrogen source): yes
- Toxic [1, 3]: no
- Nitrogen sources that Mortierella elongata AG77 can metabolize [1]: can metabolize

Molecule: OC[C@H]1O[C@@H](O)[C@H](O)[C@H](O)[C@@H]1O [β-D-Allose]
- Toxic [2]: no
- Metabolized ([2]; compound as carbon source): no

Molecule: OC[C@@H](O)[C@@H](O)CO [i-Erythritol]
- Metabolized ([2]; compound as carbon source): no
- Toxic [2, 4]: no

Molecule: O=C1NC(=O)C(=O)C(=O)N1 [Alloxan]
- Metabolized ([1]; compound as nitrogen source): no
- Toxic [1, 3]: no

Molecule: O=C(O)CC(O)(CC(=O)O)C(=O)O [Citric Acid]
- Metabolized ([2]; compound as carbon source): yes
- Carbon sources that Mortierella elongata AG77 can metabolize [2]: can metabolize

Molecule: OC[C@H]1O[C@H](OC[C@H]2O[C@H](O[C@]3(CO)O[C@H](CO)[C@@H](O)[C@@H]3O)[C@H](O)[C@@H](O)[C@@H]2O)[C@H](O)[C@@H](O)[C@H]1O [D-Raffinose]
- Toxic [2]: no
- Metabolized ([2]; compound as carbon source): yes
- Carbon sources that Mortierella elongata AG77 can metabolize [2]: can metabolize

Molecule: N=C(N)NCCCCN [Agmatine]
- Metabolized ([1]; compound as nitrogen source): no
- Toxic [1, 3]: no

Molecule: N[C@@H](CS)C(=O)O [L-Cysteine]
- Metabolized ([1]; compound as nitrogen source): no

Molecule: NC(=O)CCC(=O)O [Succinamic Acid]
- Metabolized ([2]; compound as carbon source): no
- Toxic [2, 4]: no

Molecule: OC[C@@H](O)[C@H](O)[C@H](O)[C@@H](O)CO [Dulcitol]
- Toxic [2]: no
- Metabolized ([2]; compound as carbon source): no

Molecule: O=c1cc[nH]c(=O)[nH]1 [Uracil]
- Toxic [1]: no
- Metabolized ([1]; compound as nitrogen source): no

Molecule: Gentiobiose
- Metabolized ([2]; compound as carbon source): no
